Laboratory results reported in article PMC6856805, “Environmental Risk Assessment for the Active Pharmaceutical Ingredient Mycophenolic Acid in European Surface Waters” (Environmental Toxicology and Chemistry, 2019).
Converted amounts (≈) assume the structure as drawn. “And” between values parts separate entries of the source, which are not always exact repeats. Equal entries are not always repeated. Where two headings read alike, the source gives them in different places.

Legend:
[1] = Derivation of predicted no-effect concentrations (PNEC) for STPs and surface water
Description: The surface (fresh) water PNECSW was derived in 2 ways, from the lowest chronic NOEC on the one hand and from the lowest chronic 10% effect concentration (EC10) on the other, from (sub)chronic tests with fish, daphnids, green algae, and cyanobacteria (for the latter 2 the NOErC/ErC10 for growth rate [r] was used), using an assessment factor of 10 (Committee for Medicinal Products for Human Use 2015).

[2] = Dissociation constant (pKa) by titration; format: physicochemical; settings: 25 ± 2 °C
Description: Syntex derived many basic physicochemical properties for both MPM and MPA in the early 1990s. The results for MPA are mostly given in the present study.

[3] = OECD test guideline 106 batch equilibrium adsorption test; format: physicochemical
Experimental: An OECD 106 phase I batch equilibrium adsorption test was performed by Toxi-Coop, Balatonfűred, Hungary (Halász-Laky 2018) with MPA and three soils plus two activated sludges of different characteristics (pHKCl, organic carbon (OC) content, plus for the soils sand fraction, silt fraction, clay fraction and USDA soil texture).
In short, the substrates were put in contact with MPA in aqueous 0.01 M CaCl2 solutions; the mixture was agitated for an appropriate time to reach equilibrium, in the case of MPA for 10 hours. The soil/sludge suspensions were then separated and the aqueous phase diluted twofold with the mobile HPLC phase, analysed by HPLC (Supplemental Information) and the amount of test item in the water phase calculated. The soil or sludge phases were extracted twice with acetonitrile/water/1 mg/mL NaOH solution (75/75/2, v/v/v); the extracts were diluted twofold with the mobile phase and then analysed by HPLC. Based on the analytics the mass balance could be established. The adsorption constant Kd was calculated as MPA concentration adsorbed to substrate divided by MPA concentration in aqueous CaCl2 solution; subsequently the Kd was normalised to the OC content to result in the KOC for the different substrates (Halász-Laky 2018).

[4] = set-up: method as in Franquet‐Griell et al. (2017a); settings: ref Franquet‐Griell et al. (2017a); cited from earlier work
daphnid = settings: in vivo
Danio rerio = test: Fish partial life cycle test, OECD 210 early life stage phase (F1); format: in vivo
Experimental: At the highest tested concentration of 0.1 mg MPA/L nominal concentration (73 µg/L GMMC), only 2 of 75 hatched fish survived until the end of the test, showing that the test concentration range was well chosen. The most sensitive endpoints in this partial life cycle test were survival and growth in terms of length and mass of the young F1 fish; the effects were comparatively small but statistically significant at p = 0.05. In contrast, the F0 generation was impacted to a lesser extent.
In view of the mammalian mutagenicity and reprotoxicity, a fish partial life-cycle test (PLC; an OECD 229 short-term reproduction test followed by an OECD 210 early-life-stage test) was performed by ECT Oekotoxikologie under GLP with a series of concentrations of MPA in a flow-through setting with the zebrafish Danio rerio (Gilberg & Chambers 2018). Briefly, mature fish (F0 generation) in breeding groups of 14 fish were exposed to four concentrations of the test item (0.0005, 0.0029, 0.0171 and 0.100 mg MPA/L), in fish media as well as to controls without the test item, in two replicates per treatment including controls, for 23 days in a 14-hours light to 10-hours dark photoperiod (OECD 229 phase). During this time period, reproduction parameters (survival of parents, fecundity, e.g., number of eggs, fertility and embryo viability/hatchability) of zebrafish exposed to the test item were assessed in comparison with the controls to determine the lowest observed effect concentration (LOEC) and the NOEC. After 23 days, newly fertilised eggs of the F1 generation were collected and exposed to the corresponding series of test item concentrations, 20 eggs in four replicates each per treatment including controls, until 30 days post-hatch (OECD 210 phase). Lethal and sublethal effects of the test item on eggs, larvae and juvenile fish exposed to the test item were assessed in comparison with controls to determine the LOEC and the NOEC. Samples were taken and analysed by LC–MS/MS (Supplemental Information) and the GMMC for the concentrations determined. Statistical check were made using Probit analyses, Weibull analyses, 2- and 3-parameter normal CDF, Shapiro-Wilk’s test on normal distribution, Levene’s test on variance homogeneity, Fisher's Exact Binomial test, Chi² 2×2 Table Test, Welsh t-test, Step-down Cochran-Armitage test Procedure, Williams Multiple Sequential t-test Procedure and Dunnett`s Multiple t-test Procedure.

[5] = cited from earlier work; for k photo: ref Franquet‐Griell et al. (2017a)
[6] = tested on: Rhaphidocelis (Pseudokirchneriella) subcapitata; settings: cited from earlier work
Anabaena flos-aquae = test: microbe, parasite or virus in culture; format: cell-based; settings: 72 h
Description: The new chronic ecotoxicity tests with cyanobacteria (D. Gilberg and G. Chambers, ECT Oekotoxikologie, Flörsheim, Germany, on behalf of F.Hoffmann‐La Roche, Basle, Switzerland, unpublished data), daphnids (P. Egeler and J. Chambers, ECT Oekotoxikologie, Flörsheim, Germany, on behalf of F.Hoffmann‐La Roche, Basle, Switzerland, unpublished data), and fish (D. Gilberg and G. Chambers, unpublished data) fulfilled the validity criteria of the respective OECD guidelines (see the Supplemental Data). […] The following endpoints were determined, all relating to GMMC: NOEC (both growth and yield) 83.9 µg MPA/L, LOEC 284 µg/L, ErC10 155 (95% confidence interval [CI] 137–171) µg/L, and ErC50 423 (95% CI 406–441) µg/L (D. Gilberg and G. Chambers, unpublished data).
An OECD 201 algal growth inhibition test was performed by ECT Oekotoxikologie, Flörsheim, Germany, with the cyanobacterian Anabaena flos-aquae with a series of concentrations of MPA in cyanobacteria test medium in different concentrations plus medium-only controls under continuous lighting over 72 h (Gilberg & Chambers 2017). The growth of the algae was measured by calibrated fluorescence intensity of sonicated test solution samples using a fluorometer after 24, 48 and 72 hours. The test concentrations were analysed by HPLC at the start and end of the test.

COc1c(C)c2c(c(O)c1CC=C(C)CCC(=O)O)C(=O)OC2 [MPA, 6‐(1,3‐dihydro‐4‐hydroxy‐6‐methoxy‐7‐methyl‐3‐oxo‐5‐isobenzofuranyl)‐4‐methyl‐4‐hexenoic acid]
PNECEC10 (aquatic) ([1]; fish EC10, assessment factor of 10): 0.58 µg MPA/L and 0.580 µg MPA/L
PNECNOEC (aquatic) ([1]; fish NOEC, assessment factor of 10): 0.132 µg MPA/L
pK a, carboxylic acid [2]: 4.58
pK a, phenolic [2]: 8.045
highest K OC ([3]; in one of the activated sludges): 37 L/kg
activated sludge K d ([3]; two activated sludges): 9.3 L/kg and 13 L/kg
hydrolytic degradation constant [4]: 0.0002 min^–1
48‐h NOEC (daphnid): 440 mg/L
hatched fish surviving until the end of the test (Danio rerio; 0.1 mg MPA/L nominal (73 µg/L GMMC)): 2 of 75
EC10, hatching success (Danio rerio; 34 d phase): > 73 µg GMMC MPA/L
NOEC, hatching success (Danio rerio; 34 d phase, GMMC): 73 µg/L
lowest EC10 (Danio rerio; Danio rerio, in vivo, 57 d): 5.8 µg MPA/L
overall NOEC for all endpoints in both F0 and F1 generations (Danio rerio; Danio rerio, in vivo, 57 d): 1.32 µg MPA/L
EC10, posthatch success (survival) and number of healthy fish (Danio rerio; F1, GMMC): 5.8 µg MPA/L
NOEC, posthatch success (survival) and number of healthy fish (Danio rerio; F1, GMMC): 10.9 µg MPA/L
EC10, length of the surviving F1 fish (Danio rerio; GMMC): 31.9 µg MPA/L
EC10, wet weight of the surviving F1 fish (Danio rerio; GMMC): 10.6 µg MPA/L
NOEC, length of the surviving F1 fish (Danio rerio; GMMC): 1.32 µg/L
NOEC, wet weight of the surviving F1 fish (Danio rerio; GMMC): 1.32 µg/L
k photo ([5]; Solar Box artificial sunlight reactor): 0.004 min^–1
k photo ([5]; UV‐C irradiation): 0.0284 min^–1
UV-C photodegradation ([5]; pH 7, 20 mg/L MPA, ref Marín‐García (2015)): negligible photodegradation
ErC50 ([6]; GMMC, 24 h dark + 72 h light, ref European Chemicals Agency 2018): 68 µg/L
ErC10 [6]: 12 µg/L
NOErC [6]: 9 µg/L
ErC10 (Anabaena flos-aquae; Anabaena flos-aquae): 155 µg/L
LOEC (Anabaena flos-aquae; Anabaena flos-aquae): 284 µg/L
NOEC (both growth and yield) (Anabaena flos-aquae; Anabaena flos-aquae): 83.9 µg MPA/L
EC50 (Anabaena flos-aquae; Dolichospermum flos-aquae, GMMC, read-out: ErC50): 0.423 mg/L (≈ 1.32 µM)
